# Laboratory results from PMC7966987, “Insights into the catalytic properties of the mitochondrial rhomboid protease PARL” (The Journal of Biological Chemistry, 2021).
# Tests used:
# Format in all cases: biochemical
# PARLΔ77 [1] = target: T1, PARLΔ77 (Homo sapiens, UniProt Q9H300); test: IQ-peptide substrate cleavage kinetics, β-cleavage PARLΔ77 in detergent; settings: PARLΔ77 0.8 μM in 0.1% DDM with CL, 50 mM Tris-HCl pH 7.0, 150 mM NaCl, 10% glycerol, 5% DMSO, 37 °C, fluorescence; mean ± SEM
# T1 construct: GFP-hexahistidine (behind a TEV cleavage site) (C, cleaved yes); made in house; host or cells: Pichia pastoris
# T1 sequence (Q9H300 78-379): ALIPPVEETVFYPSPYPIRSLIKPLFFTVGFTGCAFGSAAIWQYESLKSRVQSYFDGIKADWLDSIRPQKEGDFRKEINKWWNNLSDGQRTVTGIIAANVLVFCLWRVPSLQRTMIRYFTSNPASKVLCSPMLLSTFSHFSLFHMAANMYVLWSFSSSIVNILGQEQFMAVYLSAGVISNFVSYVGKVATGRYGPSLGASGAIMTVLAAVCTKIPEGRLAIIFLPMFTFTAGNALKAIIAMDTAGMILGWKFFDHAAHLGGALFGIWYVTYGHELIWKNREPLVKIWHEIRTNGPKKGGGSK
# From the text: (§1) To further evaluate the cleavage of other known substrates of PARL, we adopted a more facile system to examine cleavage of multiple substrates and generated internally quenched (IQ) peptide substrates ([25], [36], [37], [38]) based on the amino acids flanking the PARL cleavage sites of PINK1 ([39]), PGAM5 ([8]), and Smac/Diablo ([11]). […] The assay allowed us to determine the catalytic parameters for the three primary PARL substrates and examine the substrate specificity (Fig. 2, Tables S2–S4).
# (§2) Assays with FRET-PINK1^70–134 were conducted as previously described ([26]). For EDANS/Dabcyl 10-mer IQ peptides (PINK1, PGAM5, Smac/Diablo), lyophilized peptides were initially dissolved in DMSO to obtain a stock solution. The IQ peptide substrates in a concentration range of 0.1–70 μM were incubated with activity assay buffer (50 mM Tris-HCl pH 7.0, 150 mM NaCl, 10% glycerol, 0.1% DDM) in a 384-well black-bottomed plate at 37 °C for 30 min in a multiwell plate reader (SynergyMx, BioTek). For all concentrations of IQ peptide, the DMSO was kept constant at 5%. Following preincubation, PARL was added to a final concentration of 0.8 μM to initiate the cleavage reaction. Fluorescence readings were taken every 3 min over a 3 h time course at ƛex = 336 nm and ƛem = 490 nm. The initial velocity was determined from the fluorescence readings over the time course. For each substrate concentration, a no-enzyme control was subtracted to eliminate background fluorescence changes not related to substrate cleavage. Relative fluorescence units were converted to concentration (μM) by determining the maximum change in fluorescence observed for each substrate concentration when fully digested. GraphPad Prism software was used for Michaelis–Menten analysis of kinetic curves. All kinetic data were obtained using at least three biological replicates (different enzyme preparations) with technical duplicates for each experiment. For kinetic measurements in detergent with all three substrates, the activity assays were repeated at least five times. In addition, after each protease purification, the quality control of purified PARL was controlled by measuring its enzymatic activity. Minimum of three experimental replicates with two technical replicates were used for data analysis.
# human PARLΔ55 = target: T2, human PARLΔ55 (Homo sapiens, UniProt Q9H300); test: IQ-peptide substrate cleavage kinetics, full-length PARLΔ55 in detergent; settings: for Km / kcat (turnover rate) / kcat/KM (catalytic efficiency): PARLΔ55 0.8 μM in 0.1% DDM with CL, 50 mM Tris-HCl pH 7.0, 150 mM NaCl, 10% glycerol, 5% DMSO, 37 °C, fluorescence, mean ± SEM
# T2 construct: to generate full-length (FL) starting at residue 55 or the β-cleavage form truncated at residue 77; GFP-hexahistidine (behind a TEV cleavage site) (C, cleaved yes); made in house; host or cells: Pichia pastoris
# T2 sequence (Q9H300 56-379): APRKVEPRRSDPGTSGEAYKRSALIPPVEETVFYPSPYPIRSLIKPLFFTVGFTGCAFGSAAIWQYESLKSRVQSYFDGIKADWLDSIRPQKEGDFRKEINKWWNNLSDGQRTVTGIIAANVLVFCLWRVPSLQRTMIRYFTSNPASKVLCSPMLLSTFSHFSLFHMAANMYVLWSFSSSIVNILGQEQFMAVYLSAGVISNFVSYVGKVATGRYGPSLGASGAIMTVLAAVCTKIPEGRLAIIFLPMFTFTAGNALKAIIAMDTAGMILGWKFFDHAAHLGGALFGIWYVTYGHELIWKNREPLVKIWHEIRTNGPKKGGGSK
# From the text: as §1, §2
# PARLΔ77 [2] = target: T1, PARLΔ77; test: IQ-peptide substrate cleavage kinetics, PARLΔ77 in proteoliposomes; settings: PARLΔ77 in PLs (E. coli polar lipids), 50 mM Tris-HCl pH 7.0, 150 mM NaCl, 10% glycerol, no DDM, 37 °C, mean ± SEM
# PARLΔ77 [3] = target: T1, PARLΔ77; test: IQ-peptide substrate cleavage kinetics, PARLΔ77 in POPE/POPC proteoliposomes lacking CL; settings: pH 7.0, 37 °C, mean ± SEM, n=3
# From the text: To examine if CL influences PARL activity in a membrane environment, we prepared PL samples containing β-truncated PARL and conducted detailed kinetic analysis with the three IQ-peptide substrates (Fig. 3B). Two independent PL samples were generated: the first consisted only of POPC and POPE, while the second also contained CL. […] When CL was omitted from the PL, we observed two to tenfold slower turnover rates of cleavage for IQ-peptide substrates by β-truncated PARL (Fig. 3B and Table S7).
# as §2
# E. coli polar lipids (Avanti), 400 μg in chloroform, were dried under nitrogen stream in a glass tube to yield a thin film of lipid. The tube was incubated overnight in a desiccator to completely remove all traces of solvent. In total, 50 μl of water and DDM detergent was added to the lipid film for resuspension at room temperature for 10 min, followed by the addition of purified PARL (400 μg) in 50 mM Tris-HCl, pH 8.0, 150 mM NaCl, 20% glycerol, 0.1% DDM, to yield the final weight ratio of 1 PARL:1 lipid:2 detergent. The detergent was slowly removed by the addition of SM2 Biobeads (Bio-Rad) while stirring on ice for 6 h to allow for the generation of proteoliposomes (PL); the process was controlled by the regimen of Biobead addition. To purify the PL, 50%:20% sucrose density gradient ultracentrifugation was used. A TAMRA probe (ThermoFisher) was used to determine the orientation of reconstituted PARL, which specifically and covalently labels serine residues of an enzymatically active serine protease. In total, 2 μM of TAMRA probe was added to PL samples and incubated for 1 h, allowing the TAMRA probe to label only the outward-facing accessible active sites. The same amount of PL, but with 1% DDM added to dissolve lipid vesicles incubated with 2 μM of TAMRA probe at the same conditions, was used as a benchmark for 100% accessible protein amount. The reaction was quenched with addition of SDS-containing sample buffer and the protein samples were visualized with SDS-PAGE followed by fluorescent gel scanning. The bands were quantified by densitometry analysis. […]
Substance,Km (PARLΔ77 [1]),kcat (turnover rate) (PARLΔ77 [1]),kcat/KM (catalytic efficiency) (PARLΔ77 [1]),substrate turnover with PARLΔ55 compared with PARLΔ77 (human PARLΔ55),Km (human PARLΔ55),kcat (turnover rate) (human PARLΔ55),kcat/KM (catalytic efficiency) (human PARLΔ55),Km (PARLΔ77 [2]),kcat (turnover rate) (PARLΔ77 [2]),kcat/KM (catalytic efficiency) (PARLΔ77 [2]),Km (PARLΔ77 [3]),kcat (turnover rate) (PARLΔ77 [3]),kcat/KM (catalytic efficiency) (PARLΔ77 [3]),kcat/KM (catalytic efficiency) (PARLΔ77 [2]; listed as PGAM5),kcat/KM (catalytic efficiency) (PARLΔ77 [2]; listed as PGAM520-29),kcat (turnover rate) (PARLΔ77 [2]; listed as Smac/Diablo),kcat (turnover rate) (PARLΔ77 [2]; listed as Smac/Diablo51-60)
"(DABCYL)-AVFLAFGLGL-Glu(EDANS) [IQ-PINK1^99–108, internally quenched DABCYL/EDANS peptide substrate based on PINK1 PARL cleavage site]",3.3 ± 0.5 µM,0.000361 ± 2.8e-05 s⁻¹,110 ± 28 M⁻¹ s⁻¹,significantly lower substrate turnover,1.9 ± 0.4 µM,0.000117 ± 8.3e-06 s⁻¹,61.1 ± 22 M⁻¹ s⁻¹,8 ± 1 µM,0.00778 ± 0.00056 s⁻¹,972 ± 170 M⁻¹ s⁻¹,14 ± 5 µM,0.0019 ± 0.00028 s⁻¹,140 ± 56 M⁻¹ s⁻¹,–,–,–,–
"(DABCYL)-AVFLSAVAVG-Glu(EDANS) [IQ-PGAM5^20–29, internally quenched DABCYL/EDANS peptide substrate based on PGAM5 PARL cleavage site]",1.6 ± 0.2 µM,0.000272 ± 1.1e-05 s⁻¹,170 ± 28 M⁻¹ s⁻¹,significantly lower substrate turnover,0.47 ± 0.07 µM,0.000128 ± 5.6e-06 s⁻¹,278 ± 83 M⁻¹ s⁻¹,0.8 ± 0.2 µM,0.00583 ± 0.00028 s⁻¹,–,8 ± 3 µM,0.0025 ± 0.00056 s⁻¹,278 ± 83 M⁻¹ s⁻¹,7220 ± 2200 M⁻¹ s⁻¹,7220 ± 2200 M⁻¹ s⁻¹,–,–
"(DABCYL)-GVT LCAVPIA-Glu(EDANS) [IQ-Smac/Diablo^51–60, internally quenched DABCYL/EDANS peptide substrate based on Smac/Diablo PARL cleavage site]",5 ± 1 µM,0.000333 ± 2.8e-05 s⁻¹,83 ± 28 M⁻¹ s⁻¹,–,6 ± 1 µM,0.000361 ± 2.8e-05 s⁻¹,83 ± 28 M⁻¹ s⁻¹,17 ± 4 µM,–,944 ± 280 M⁻¹ s⁻¹,3.8 ± 1 µM,0.00133 ± 8.3e-05 s⁻¹,333 ± 83 M⁻¹ s⁻¹,–,–,0.0161 ± 0.0019 s⁻¹,0.0161 ± 0.0019 s⁻¹
